test system: Min6 cell; test: Insulin secretion response of beta cell line to formula I compounds (insulin ELISA); assay type: cell-based; settings: rank according to % increase versus control at most effective dose
Description: The secretory responses of beta cell lines to glucose were tested as described in Merglen et al. Endocrinology, (2004) 145(2):667-78.
Briefly, after incubation with compounds from formula I or control vehicle, cells were maintained for 2 hours in glucose-free culture medium. The cells were then washed twice and preincubated for 30 minutes at 37° C. in glucose-free Krebs-Ringer bicarbonate HEPES buffer (KRBH: 135 mM NaCl, 3.6 mM KCl, 5 mM NaHCO3, 0.5 mM NaH2PO4, 0.5 mM MgCl2, 1.5 mM CaCl2, and 10 mM HEPES, pH 7.4). BSA (0.1%) was added as an insulin carrier. Cells were subsequently washed with glucose-free KRBH and then incubated for 30 minutes at 37° C. in KRBH containing different concentrations of glucose. The reaction was stopped by placing the plates on ice; supernatants were collected to determine insulin secretion and cells were used for intracellular insulin content following acid-ethanol extraction. Insulin was measured by ELISA (Linco) according to the manufacturer's instructions.

Molecule	Insulin secretion (Min6 cell) Range 1 to 5
5-[3-(allyloxy)-2-hydroxypropyl]-9-ethyl-6,7,9,10-tetrahydro[1,3]dioxolo[4,5-i][1,5]benzodiazocin-8(5H)-one [Compound 164]	1 (1: 90-110% of control)
5-benzyl-1-(isoxazole-5-carbonyl)-2,3,5,6-tetrahydrobenzo[b][1,5]diazocin-4(1H)-one [Compound 157]	1 (1: 90-110% of control)
9-ethyl-5-(2-hydroxy-3-phenylpropyl)-6,7,9,10-tetrahydro[1,3]dioxolo[4,5-i][1,5]benzodiazocin-8(5H)-one [Compound 165]	1 (1: 90-110% of control)
COc1ccc2c(c1)CN(C1CC1)C(=O)CCN2 [Compound 1, 5-cyclopropyl-8-methoxy-2,3,5,6-tetrahydrobenzo[b][1,5]diazocin-4(1H)-one]	2 (2: 110-120% of control)
COc1ccc2c(c1)CN(C1CC1)C(=O)CCN2CC(O)COc1ccccc1 (stereo not shown) [Compound 2, 5-cyclopropyl-1-(2-hydroxy-3-phenoxypropyl)-8-methoxy-2,3,5,6-tetrahydrobenzo[b][1,5]diazocin-4(1H)-one]	3 (3: 120-140% of control)
COc1ccc2c(c1)CN(C1CC1)C(=O)CCN2CCc1ccc(Cl)cc1 [Compound 3, 1-(4-chlorophenethyl)-5-cyclopropyl-8-methoxy-2,3,5,6-tetrahydrobenzo[b][1,5]diazocin-4(1H)-one]	1 (1: 90-110% of control)
COc1ccc2c(c1)CN(C1CC1)C(=O)CCN2C(=O)c1cc(C)on1 [Compound 4, 5-cyclopropyl-8-methoxy-1-(5-methylisoxazole-3-carbonyl)-2,3,5,6-tetrahydrobenzo[b][1,5]diazocin-4(1H)-one]	2 (2: 110-120% of control)
COc1ccc2c(c1)CN(C1CC1)C(=O)CCN2CC(=O)c1ccc(F)cc1 [Compound 5, 5-cyclopropyl-1-(2-(4-fluorophenyl)-2-oxoethyl)-8-methoxy-2,3,5,6-tetrahydrobenzo[b][1,5]diazocin-4(1H)-one]	3 (3: 120-140% of control)
COc1ccc2c(c1)CN(C1CC1)C(=O)CCN2CC(O)c1ccc(F)cc1 (stereo not shown) [Compound 6, 5-cyclopropyl-1-(2-(4-fluorophenyl)-2-hydroxyethyl)-8-methoxy-2,3,5,6-tetrahydrobenzo[b][1,5]diazocin-4(1H)-one]	3 (3: 120-140% of control)
O=C1CCNc2ccc(Br)cc2CN1C1CC1 [Compound 7, 8-bromo-5-cyclopropyl-2,3,5,6-tetrahydrobenzo[b][1,5]diazocin-4(1H)-one]	1 (1: 90-110% of control)
O=C1CCNc2ccc(F)cc2CN1C1CC1 [Compound 8, 5-cyclopropyl-8-fluoro-2,3,5,6-tetrahydrobenzo[b][1,5]diazocin-4(1H)-one]	3 (3: 120-140% of control)
O=C1CCNc2ncccc2CN1C1CC1 [Compound 9, 5-cyclopropyl-2,3,5,6-tetrahydropyrido[2,3-b][1,5]diazocin-4(1H)-one]	2 (2: 110-120% of control)
O=C1CCNc2ccc(F)cc2CN1 [Compound 10, 8-fluoro-2,3,5,6-tetrahydrobenzo[b][1,5]diazocin-4(1H)-one]	4 (4: 140-170% of control)
COc1ccc2c(c1)CN(C1CC1)C(=O)CCN2CC(=O)c1ccccc1 [Compound 11, 5-cyclopropyl-8-methoxy-1-(2-oxo-2-phenylethyl)-2,3,5,6-tetrahydrobenzo[b][1,5]diazocin-4(1H)-one]	1 (1: 90-110% of control)
COc1ccc2c(c1)CN(C1CC1)C(=O)CCN2CC(=O)c1cc(OC)ccc1OC [Compound 12, 5-cyclopropyl-1-(2-(2,5-dimethoxyphenyl)-2-oxoethyl)-8-methoxy-2,3,5,6-tetrahydrobenzo[b][1,5]diazocin-4(1H)-one]	1 (1: 90-110% of control)
COc1ccc2c(c1)CN(C1CC1)C(=O)CCN2CC(=O)c1ccccc1OC [Compound 13, 5-cyclopropyl-8-methoxy-1-(2-(2-methoxyphenyl)-2-oxoethyl)-2,3,5,6-tetrahydrobenzo[b][1,5]diazocin-4(1H)-one]	1 (1: 90-110% of control)

Molecule	Insulin secretion (Min6 cell) Range 1 to 5
COc1ccc2c(c1)CN(C1CC1)C(=O)CCN2CC(=O)c1ccc(Cl)cc1 [Compound 14, 1-(2-(4-chlorophenyl)-2-oxoethyl)-5-cyclopropyl-8-methoxy-2,3,5,6-tetrahydrobenzo[b][1,5]diazocin-4(1H)-one]	3 (3: 120-140% of control)
COc1ccc2c(c1)CN(C1CC1)C(=O)CCN2CC(=O)c1ccc2c(c1)OCCO2 [Compound 15, 5-cyclopropyl-1-(2-(2,3-dihydrobenzo[b][1,4]dioxin-6-yl)-2-oxoethyl)-8-methoxy-2,3,5,6-tetrahydrobenzo[b][1,5]diazocin-4(1H)-one]	3 (3: 120-140% of control)
COc1ccc2c(c1)CN(C1CC1)C(=O)CCN2CC(=O)c1ccc(N2CCCC2)cc1 [Compound 16, 5-cyclopropyl-8-methoxy-1-(2-oxo-2-(4-(pyrrolidin-1-yl)phenyl)ethyl)-2,3,5,6-tetrahydrobenzo[b][1,5]diazocin-4(1H)-one]	4 (4: 140-170% of control)
COc1ccc2c(c1)CN(C1CC1)C(=O)CCN2CC(O)c1ccccc1 (stereo not shown) [Compound 17, 5-cyclopropyl-1-(2-hydroxy-2-phenylethyl)-8-methoxy-2,3,5,6-tetrahydrobenzo[b][1,5]diazocin-4(1H)-one]	2 (2: 110-120% of control)
COc1ccc2c(c1)CN(C1CC1)C(=O)CCN2C[C@@H](O)COCc1ccccc1 [Compound 18, (R)-1-(3-(benzyloxy)-2-hydroxypropyl)-5-cyclopropyl-8-methoxy-2,3,5,6-tetrahydrobenzo[b][1,5]diazocin-4(1H)-one]	2 (2: 110-120% of control)
O=C1CCN(C[C@@H](O)COCc2ccccc2)c2ccc(F)cc2CN1C1CC1 [Compound 19, (R)-1-(3-(benzyloxy)-2-hydroxypropyl)-5-cyclopropyl-8-fluoro-2,3,5,6-tetrahydrobenzo[b][1,5]diazocin-4(1H)-one]	1 (1: 90-110% of control)
COc1cccc(C(=O)CN2CCC(=O)N(C3CC3)Cc3cc(OC)ccc32)c1 [Compound 20, 5-cyclopropyl-8-methoxy-1-(2-(3-methoxyphenyl)-2-oxoethyl)-2,3,5,6-tetrahydrobenzo[b][1,5]diazocin-4(1H)-one]	1 (1: 90-110% of control)
COc1ccc(C(=O)CN2CCC(=O)N(C3CC3)Cc3cc(OC)ccc32)cc1 [Compound 21, 5-cyclopropyl-8-methoxy-1-(2-(4-methoxyphenyl)-2-oxoethyl)-2,3,5,6-tetrahydrobenzo[b][1,5]diazocin-4(1H)-one]	2 (2: 110-120% of control)
COc1ccc2c(c1)CN(C1CC1)C(=O)CCN2CC(=O)c1cccc(F)c1 [Compound 22, 5-cyclopropyl-1-(2-(3-fluorophenyl)-2-oxoethyl)-8-methoxy-2,3,5,6-tetrahydrobenzo[b][1,5]diazocin-4(1H)-one]	2 (2: 110-120% of control)
COc1ccc2c(c1)CN(C1CC1)C(=O)CCN2CC(=O)c1ccc(OC(F)(F)F)cc1 [Compound 23, 5-cyclopropyl-8-methoxy-1-(2-oxo-2-(4-(trifluoromethoxy)phenyl)ethyl)-2,3,5,6-tetrahydrobenzo[b][1,5]diazocin-4(1H)-one]	1 (1: 90-110% of control)
COc1ccc2c(c1)CN(C1CC1)C(=O)CCN2CC(=O)c1ccc(F)c(F)c1 [Compound 24, 5-cyclopropyl-1-(2-(3,4-difluorophenyl)-2-oxoethyl)-8-methoxy-2,3,5,6-tetrahydrobenzo[b][1,5]diazocin-4(1H)-one]	2 (2: 110-120% of control)
COc1ccc2c(c1)CN(C1CC1)C(=O)CCN2CC(O)c1cc(OC)ccc1OC (stereo not shown) [Compound 25, 5-cyclopropyl-1-(2-(2,5-dimethoxyphenyl)-2-hydroxyethyl)-8-methoxy-2,3,5,6-tetrahydrobenzo[b][1,5]diazocin-4(1H)-one]	2 (2: 110-120% of control)
COc1ccc2c(c1)CN(C1CC1)C(=O)CCN2CC(O)c1ccccc1OC (stereo not shown) [Compound 26, 5-cyclopropyl-1-(2-hydroxy-2-(2-methoxyphenyl)ethyl)-8-methoxy-2,3,5,6-tetrahydrobenzo[b][1,5]diazocin-4(1H)-one]	2 (2: 110-120% of control)
COc1ccc2c(c1)CN(C1CC1)C(=O)CCN2CC(O)c1ccc(Cl)cc1 (stereo not shown) [Compound 27, 1-(2-(4-chlorophenyl)-2-hydroxyethyl)-5-cyclopropyl-8-methoxy-2,3,5,6-tetrahydrobenzo[b][1,5]diazocin-4(1H)-one]	4 (4: 140-170% of control)
COc1ccc2c(c1)CN(C1CC1)C(=O)CCN2CC(O)c1ccc(N2CCCC2)cc1 (stereo not shown) [Compound 28, 5-cyclopropyl-1-(2-hydroxy-2-(4-(pyrrolidin-1-yl)phenyl)ethyl)-8-methoxy-2,3,5,6-tetrahydrobenzo[b][1,5]diazocin-4(1H)-one]	3 (3: 120-140% of control)

— patent publication US8765728B2, “[1,5]-diazocin derivatives” (MelliTech, priority 2009, dated 2014)
